Test results published in patent US4061760A, “Method for using 3-substituted-5-phenyl-5-pyridyl hydantoins as antiarrhythmic agents” (priority 1976, dated 1977).

Legend:
[1] = cited from earlier work; for side effects / toxicity (in words): background
[2] = in vivo; format: in vivo; settings: mouse, in vivo, ip; LD50 and ED50 in mg/kg, i.p.; read-out: Therapeutic index
Protocol: (§1) The test compounds were administered in varying intraperitoneal doses to groups consisting of 5 mice. Ten minutes after administration of a given dose of a compound, a mouse was transferred to a covered 300 ml glass beaker that contained a wad of cotton saturated with about 20 ml of chloroform. The animal was observed closely and removed from the beaker immediately after respiratory arrest. The heart was quickly exposed by making an incision through the abdomen, diaphragm, thorax and pericardium for visual inspection of ventricular rate and rhythm. Ventricular contractions were counted for 30 seconds. According to the procedure reported by Lawson, animals with ventricular rate not exceeding 100 contractions during the 30 second observation period were considered protected.

[3] = test system: ventricular rate and rhythm; assay: animal or person; format: in vivo; settings: for ED50: Mus musculus, ip, 10 min, read-out: ED50 (95% CL)
Protocol: as §1

[4] = in vivo; settings: ip
Description: LD50 data were obtained by standard procedures known to the art.

[5] = Casagrande, quoted; cited from earlier work

Row | SMILES | selectivity ratio [2] | ED50 [3] | LD50 [4] | further results
1 | O=C1NC(=O)C(c2ccccc2)(c2ccccc2)N1 [DPH, 5,5-diphenyl-2,4-imidazolidinedione] |  |  |  | side effects / toxicity (in words) [1]: dizziness, nausea, emesis, nystimus, and ataxia; side effects at large doses (in words) ([1]; large doses): atrio-ventricular blockage, bradycardia, or even cardiac arrest
2 | O=C1NC(c2ccccc2)(c2ccccn2)C(=O)N1CCCN1CCC(c2ccccc2)CC1 (stereo not shown) [Example 1, 3-[3-(4-phenyl-1-piperidyl)propyl]-5-phenyl-5-(2-pyridyl)hydantoin] | 9 | 15.3 mg/kg | 136 mg/kg | 
3 | O=C1NC(c2ccccc2)(c2ccccn2)C(=O)N1CCCN1CCC(O)(c2ccccc2)CC1 (stereo not shown) [Example 2, 3-[3-(4-hydroxy-4-phenyl-1-piperidyl)propyl]-5-phenyl-5-(2-pyridyl)hydantoin] | 3.4 | 19.2 mg/kg | 65 mg/kg | 
4 | O=C1NC(c2ccccc2)(c2cccnc2)C(=O)N1CCCN1CCC(c2ccccc2)CC1 (stereo not shown) [Example 4, 3-[3-(4-phenyl-1-piperidyl)propyl]-5-phenyl-5-(3-pyridyl)-hydantoin] | 5 | 31 mg/kg | 156 mg/kg | 
5 | O=C1NC(c2ccccc2)(c2ccncc2)C(=O)N1CCCN1CCC(c2ccccc2)CC1 (stereo not shown) [Example 5, 3-[3-(4-phenyl-1-piperidyl)propyl]-5-phenyl-5-(4-pyridyl)hydantoin] | 2.1 | 28 mg/kg | 61 mg/kg | 
6 | C=C[C@H]1C[N@@]2CC[C@H]1C[C@@H]2[C@@H](O)c1ccnc2ccc(OC)cc12 [I, quinidine] |  |  |  | side effects / toxicity (in words) [1]: relatively toxic
7 | O=C1NC(=O)C(c2ccccc2)(c2ccccn2)N1 (stereo not shown) [V, 5-phenyl-5-(2-pyridyl)hydantoin] | 1.16 | 160 mg/kg | 186 mg/kg | 
8 | O=C1NC(=O)C(c2ccccc2)(c2cccnc2)N1 (stereo not shown) [VI, 5-phenyl-5-(3-pyridyl)hydantoin] |  | > 310 mg/kg |  | mice protected ([3]; at 310 mg/kg, i.p.): 2 of 5
9 | O=C1NC(=O)C(c2ccccc2)(c2ccncc2)N1 (stereo not shown) [VII, 5-phenyl-5-(4-pyridyl)hydantoin] | 1.17 | 205 mg/kg | 240 mg/kg | 
10 | CN(C)CCN1C(=O)NC(c2ccccc2)(c2cccnc2)C1=O (stereo not drawn) [compound XXV, 3-(2-dimethylamino-ethyl)-5-phenyl-5β-pyridyl-hydantoin] |  |  |  | therapeutic index clearly superior to that of quinidine (in words) [5]: had not been fulfilled
11 | CC(CN(C)C)CN1C(=O)NC(c2ccccc2)(c2cccnc2)C1=O (stereo not drawn) [compound XXX, 3-(2-methyl-3-dimethylamino-propyl)-5-phenyl-5β-pyridyl-hydantoin] |  |  |  | therapeutic index clearly superior to that of quinidine (in words) [5]: had not been fulfilled
